Source: publication PMC11266098, “Prenylated flavonoids from Sophora flavescens inhibit mushroom tyrosinase activity and modulate melanogenesis in murine melanoma cells and zebrafish” (Frontiers in Pharmacology, 2024)
“Also recorded” adds a separate entry of the source.

Experiments:
TYR = experiment: Western blotting of TYR in B16F10 cells; format: cell-based, murine; conditions: 10 μM, 48 h
Method: Equal amounts of proteins from the preceding step were loaded and separated by using the 10% SDS-PAGE gels before being electro-transferred onto polyvinylidene fluoride membranes. The membrane was then blocked with 5% skim milk in TBST (Tris-buffered saline containing 0.1% Tween 20) at room temperature for 2 h. The blots were incubated overnight with primary antibodies against TYR, […], MITF, DCT, and β-actin at 4°C. After washing thrice with TBST (5 min), the membrane was incubated with the secondary antibody for 1 h at room temperature. The protein bands were detected using the ECL detection kit and imaged using a chemiluminescence gel imaging system, and the band intensities were analyzed by the Image J software.

[1] = target: T1, Intracellular tyrosinase in B16F10 cells (Mus musculus, UniProt P11344); experiment: Measurement of tyrosinase activity in B16F10 cells (L-DOPA oxidation); format: cell-based, murine; conditions: 48 h
T1 construct: endogenous in cells; host or cells: B16F10 murine melanoma cells
T1 sequence (P11344 19-533): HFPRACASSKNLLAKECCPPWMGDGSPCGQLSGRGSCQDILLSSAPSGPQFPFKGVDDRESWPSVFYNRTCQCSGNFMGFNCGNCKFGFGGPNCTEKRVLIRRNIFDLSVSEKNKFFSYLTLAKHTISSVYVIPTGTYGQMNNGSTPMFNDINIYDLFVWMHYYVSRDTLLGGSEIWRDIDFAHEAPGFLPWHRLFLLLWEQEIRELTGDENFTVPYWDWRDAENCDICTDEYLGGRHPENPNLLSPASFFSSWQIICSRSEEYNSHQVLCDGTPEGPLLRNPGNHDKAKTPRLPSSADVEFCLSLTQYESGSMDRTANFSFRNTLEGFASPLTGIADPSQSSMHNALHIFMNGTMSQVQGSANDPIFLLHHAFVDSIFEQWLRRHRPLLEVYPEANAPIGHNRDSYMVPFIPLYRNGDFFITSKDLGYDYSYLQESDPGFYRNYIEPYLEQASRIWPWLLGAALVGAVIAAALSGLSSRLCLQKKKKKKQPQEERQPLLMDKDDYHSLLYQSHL
Method: Intracellular tyrosinase activity was determined by measuring the rate of oxidation of L-DOPA to dopachrome according to a previously described method with a slight modification ([Maack and Pegard, 2016]). The tyrosinase inhibitor glabridin ([Zhang et al., 2023]) and tyrosinase activator 8-MOP ([Yin et al., 2018]) were both utilized as controls to ensure the accuracy of tyrosinase activity assay in living cells. B16F10 cells were cultured in 24-well plates at the density of 5 × 10^4 cells/mL overnight and then treated with different concentrations of test samples for 48 h. After treatments, cells were washed twice with PBS, lysed with PBS containing 1% Triton X-100, and frozen at −80°C for 1 h. The lysates were then clarified by centrifugation for 20 min at 4°C, 12,000 r/min. The protein content in the supernatants was measured using the Pierce BCA protein assay kit. After protein quantification and the adjustment of the protein concentrations, 100 μL of each lysate was mixed with 100 μL of 4 mM L-DOPA in a 96-well plate, and then incubated at 37°C for 1 h, the optical density at 475 nm was measured using a microplate reader. Tyrosinase activity was expressed as a percentage of the control. All experiments were carried out at least three times.

zebrafish embryos = experiment: Determination of the maximum tolerated concentration (MTC) in zebrafish embryos; format: in vivo; conditions: 10 μM, 24 h
Method: Zebrafish embryos that were developing normally at 24 h were chosen at random, five zebrafish embryos per well were seeded in 48 well plates, and each group was set up with three duplicates. The embryo culture medium in the 48-well plate was removed except the blank group, and 1 mL of culture medium containing different concentrations of test samples was added to treatment groups for 24 h. The vehicle control group was added to the embryo culture medium containing 0.1% of DMSO.

zebrafish larvae = experiment: Melanogenesis in zebrafish larvae pretreated with PTU; format: in vivo; conditions: 10 μM, 48 h, PTU 200 μM pretreatment
Method: To assess the effects of these compounds on melanogenesis in vivo, the total melanin content of whole zebrafish extracts was measured according to a previously described method with minor modification ([Karunarathne et al., 2019]; [Ding et al., 2021]). Briefly, zebrafish larvae of 24 h post-fertilized (hpf) were seeded in 24-well plates with ten embryos per well, each group was set up with four replicates and pretreated with 200 μM PTU for 24 h. Then, the culture medium was replaced with different concentrations of test samples and treated for another 48 h. 8-MOP (50 μM) was used as a positive control, blank controls were not treated and were cultured normally. In addition, to further verify the whitening effect of the compounds, ten zebrafish larvae (24 hpf) per well were seeded in a 24-well plate and cultured for another 24 h using fresh culture media, and each group was set up with four duplicates. Then, the culture medium was replaced with different concentrations of test samples, and the zebrafish larvae were incubated for another 48 h. 8-MOP (50 μM) and arbutin (100 mM) were used as positive controls. Spontaneous melanin content was measured from zebrafish larvae at 96 hpf. The fish embryos were fixed upright with sodium carboxymethylcellulose fixative. Five fish embryos from each experiment were randomly selected for photography under a stereomicroscope. The densitometric analysis was performed using Image J software.

DCT = experiment: Western blotting of DCT in B16F10 cells; format: cell-based, murine; conditions: 10 μM, 48 h
Method: (§1) Equal amounts of proteins from the preceding step were loaded and separated by using the 10% SDS-PAGE gels before being electro-transferred onto polyvinylidene fluoride membranes. The membrane was then blocked with 5% skim milk in TBST (Tris-buffered saline containing 0.1% Tween 20) at room temperature for 2 h. The blots were incubated overnight with primary antibodies against TYR, TRP-1, MITF, DCT, and β-actin at 4°C. After washing thrice with TBST (5 min), the membrane was incubated with the secondary antibody for 1 h at room temperature. The protein bands were detected using the ECL detection kit and imaged using a chemiluminescence gel imaging system, and the band intensities were analyzed by the Image J software.

B16F10 cells = experiment: Measurement of melanin content in B16F10 cells; format: cell-based, murine; conditions: 48 h
Method: Measurement of melanin content was carried out according to a previously described method with a slight modification ([Karunarathne et al., 2019]). B16F10 cells were cultured in 6-well plates at the density of 2 × 10^5 cells/mL overnight before being treated with different concentrations of test samples for 48 h. After the treatments, the medium was discarded and the cells were washed twice with PBS and were collected, then 200 μL of RIPA lysis buffer was added to each well, and left standing in an ice bath for 40 min. The lysates were then clarified by centrifugation for 20 min at 4°C, 12,000 r/min. The protein content in the supernatants was measured using the Pierce BCA protein assay kit. Then the harvested cell pellets were photographed and dissolved in 100 μL of 1 M NaOH (containing 10% DMSO) at 100°C for 1 h. Melanin content was determined by measuring absorption at 405 nm. For the accurate calculation of melanin content, absorbance values were normalized to total protein absorbance values.

[2] = Cell viability assay (MTT); format: cell-based, murine; conditions: mouse, B16F10 cells, 0–10 μM
Method: B16F10 cells were seeded into 96-well plates at the density of 5 × 10^4 cells/mL, and incubated at 37°C for 24 h. Then, the cells were treated with different concentrations of test samples for 48 h. After incubation, 20 μL MTT (5 mg/mL) was added to each well, and incubated for another 4 h at 37°C. The reaction was stopped by adding 150 μL DMSO per well. The optical density at 490 nm was measured using a microplate reader. Cell viability was calculated as the percentage of viable cells relative to the control group.

tyrosinase = target: tyrosinase; design: method as in Kim et al., 2003; conditions: ref Kim et al., 2003; read-out: IC50 (inhibition on tyrosinase activity); cited from earlier work
mushroom tyrosinase = mushroom tyrosinase (Agaricus bisporus, UniProt C7FF04); experiment: Tyrosinase inhibition kinetic analysis (Lineweaver-Burk); format: biochemical; conditions: Lineweaver-Burk plots, L-tyrosine substrate
Method: The enzyme reaction kinetics of these compounds were measured by constructing Lineweaver-Burk plots of inverse velocities (1/[V]), contrary to the inverse of substrate concentration (1/[S]) ([Yoshino and Murakami, 2009]; [Butt et al., 2019]). Preincubations and measurement times were performed using the same protocol as described above. The substrate tyrosine concentration was kept between 0.5 and 8 mM in all kinetic studies, test sample concentrations were set as follows: glabridin (0–0.625 µM), KR (0–5 µM), SG (0–10 µM), IAI (0–2 µM). The values of the kinetic constants were calculated using Lineweaver-Burk plot analysis, and the maximum velocity (Vmax) and Michaelis constant (Km) were also calculated by the Lineweaver-Burk plots with the various concentrations of substrate.

TRP-1 = experiment: Western blotting of TRP-1 in B16F10 cells; format: cell-based, murine; conditions: 10 μM, 48 h
Method: as §1

mushroom tyrosinase, sequence (C7FF04 1-392): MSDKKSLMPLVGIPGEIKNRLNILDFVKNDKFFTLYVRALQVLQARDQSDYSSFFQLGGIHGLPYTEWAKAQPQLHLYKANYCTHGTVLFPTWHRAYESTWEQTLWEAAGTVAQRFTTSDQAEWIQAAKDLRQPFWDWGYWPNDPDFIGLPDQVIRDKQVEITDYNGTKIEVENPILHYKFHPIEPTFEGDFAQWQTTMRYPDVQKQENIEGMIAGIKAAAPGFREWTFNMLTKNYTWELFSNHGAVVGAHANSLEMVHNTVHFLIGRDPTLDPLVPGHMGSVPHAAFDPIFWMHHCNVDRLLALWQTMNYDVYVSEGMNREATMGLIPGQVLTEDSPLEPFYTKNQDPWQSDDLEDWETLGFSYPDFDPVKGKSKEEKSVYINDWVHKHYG

Question: For `C=C(C)[C@H](CC=C(C)C)Cc1c(O)cc(O)c2c1O[C@H](c1ccc(O)cc1O)CC2=O` [SG, sophoraflavanone G], which “increase of expression of TYR” value (TYR) is on record?
Answer: Its value is 78.4%.

Question: What about the “increase of tyrosinase activity in B16F10 cells” value ([1]; 10 μM) of the same molecule?
Answer: The value was 45.7%.

Question: What about the “effect on tyrosinase activity in B16F10 cells (in words)” value [1] of the same molecule?
Answer: The value was “did not exhibit significant activity”.

Question: And the “toxicity in zebrafish by the MTC assay” value (zebrafish embryos)?
Answer: The value was “nontoxic”.

Question: And the “effect on melanin production vs model (PTU) group (in words)” value (zebrafish larvae)?
Answer: The value was “no effect”.

Question: And the “upregulation of relative expression of DCT protein” value (DCT)?
Answer: The value was 70.0%.

Question: And the “effect on melanin production in B16F10 cells (in words)” value (B16F10 cells)?
Answer: The value was “did not exhibit significant activity; also recorded: did not exert any significant effects”.

Question: What about the viability at 48 h [2] of the same molecule?
Answer: Its viability at 48 h is greater than 80%.

Question: What about the IC50 (tyrosinase) of the same molecule?
Answer: Its IC50 is 6.6 µM.

Question: And the “inhibition type on tyrosinase” value (mushroom tyrosinase)?
Answer: Its value is “mixed type”.

Question: What about the “upregulation of relative expression of TRP-1 protein” value (TRP-1) of the same molecule?
Answer: The value was 229.3%.
